Measurements as given in ChEMBL document CHEMBL4359837, “Discovery of 2-(4-Chloro-3-(trifluoromethyl)phenyl)-N-(4-((6,7-dimethoxyquinolin-4-yl)oxy)phenyl)acetamide (CHMFL-KIT-64) as a Novel Orally Available Potent Inhibitor against Broad-Spectrum Mutants of c-KIT Kinase for Gastrointestinal Stromal Tumors” (J Med Chem, 2019).
The source made the active and inactive calls. No cut-off for these calls is given here.

Assays:
[1] = system: Mast/stem cell growth factor receptor Kit (Homo sapiens), P10721 [UNDEFINED MUTATION]; conditions: GISTT1, 0.1 uM
Mast/stem cell growth factor receptor Kit (Homo sapiens), P10721 [UNDEFINED MUTATION], sequence (P10721 whole entry, looked up, stated change not applied): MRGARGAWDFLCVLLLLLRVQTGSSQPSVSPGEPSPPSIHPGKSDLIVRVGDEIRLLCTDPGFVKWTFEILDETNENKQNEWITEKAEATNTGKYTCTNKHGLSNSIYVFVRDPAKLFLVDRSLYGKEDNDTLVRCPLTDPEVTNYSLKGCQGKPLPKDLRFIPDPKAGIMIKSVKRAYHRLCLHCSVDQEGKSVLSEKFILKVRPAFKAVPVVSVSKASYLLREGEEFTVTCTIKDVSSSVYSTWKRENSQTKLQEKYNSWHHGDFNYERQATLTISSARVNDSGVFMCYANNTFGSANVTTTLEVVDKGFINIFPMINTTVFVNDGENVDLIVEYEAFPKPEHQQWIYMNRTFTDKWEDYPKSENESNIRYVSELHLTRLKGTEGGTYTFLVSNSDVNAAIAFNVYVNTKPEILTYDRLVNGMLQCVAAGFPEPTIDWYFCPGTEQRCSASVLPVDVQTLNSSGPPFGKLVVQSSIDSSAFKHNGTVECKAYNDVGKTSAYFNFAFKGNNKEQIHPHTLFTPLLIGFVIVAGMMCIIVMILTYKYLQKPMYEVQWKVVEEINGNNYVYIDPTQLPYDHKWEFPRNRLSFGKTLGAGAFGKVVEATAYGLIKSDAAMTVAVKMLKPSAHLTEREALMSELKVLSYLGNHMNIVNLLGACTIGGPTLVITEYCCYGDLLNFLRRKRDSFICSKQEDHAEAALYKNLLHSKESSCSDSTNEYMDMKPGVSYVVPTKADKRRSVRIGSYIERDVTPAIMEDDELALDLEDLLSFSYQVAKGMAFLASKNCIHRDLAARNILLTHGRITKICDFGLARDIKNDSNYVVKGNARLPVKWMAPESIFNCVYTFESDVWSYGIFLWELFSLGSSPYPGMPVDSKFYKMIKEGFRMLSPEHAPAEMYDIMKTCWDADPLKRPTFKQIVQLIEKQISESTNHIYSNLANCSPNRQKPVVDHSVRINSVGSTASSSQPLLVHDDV
Description: Inhibition of c-KIT 560 to 578 deletion mutant in human GISTT1 cells assessed as reduction in pS6 phosphorylation at S236 residue at 0.1 uM measured after 2 hrs by Western blot analysis

[2] = target: RAC-alpha serine/threonine-protein kinase (Homo sapiens) (UniProt P31749); conditions: 0.1 uM
RAC-alpha serine/threonine-protein kinase (Homo sapiens), sequence (P31749 whole entry): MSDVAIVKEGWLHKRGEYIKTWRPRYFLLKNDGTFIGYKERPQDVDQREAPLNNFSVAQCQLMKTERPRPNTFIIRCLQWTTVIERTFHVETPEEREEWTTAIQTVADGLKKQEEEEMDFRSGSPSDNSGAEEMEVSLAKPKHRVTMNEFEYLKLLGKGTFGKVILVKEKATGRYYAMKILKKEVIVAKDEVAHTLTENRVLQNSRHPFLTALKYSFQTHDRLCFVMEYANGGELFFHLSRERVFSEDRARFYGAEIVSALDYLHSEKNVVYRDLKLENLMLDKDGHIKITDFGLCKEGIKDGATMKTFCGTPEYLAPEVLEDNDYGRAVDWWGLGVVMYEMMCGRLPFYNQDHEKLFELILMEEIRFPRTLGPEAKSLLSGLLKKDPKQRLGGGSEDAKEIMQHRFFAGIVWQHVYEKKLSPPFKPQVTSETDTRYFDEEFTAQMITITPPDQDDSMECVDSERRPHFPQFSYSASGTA
Description: Inhibition of AKT autophosphorylation at T308 residue in human GIST5R cells harboring c-KIT 560 to 578 deletion/T670I mutant at 0.1 uM measured after 2 hrs by Western blot analysis

[3] = system: Mast/stem cell growth factor receptor Kit (Homo sapiens), P10721 [UNDEFINED MUTATION]; conditions: 0.1 uM
Description: Inhibition of c-KIT 560 to 578 deletion/T670I mutant in human GIST5R cells assessed as reduction in c-KIT autophosphorylation at Y719 residue at 0.1 uM measured after 2 hrs by Western blot analysis

[4] = system: Mast/stem cell growth factor receptor Kit (Homo sapiens), P10721 [UNDEFINED MUTATION]; conditions: 0.1 uM; remark: listed apart in the source
Description: Inhibition of c-KIT 560 to 578 deletion/T670I mutant in human GIST5R assessed as reduction in pS6 phosphorylation at S236 residue at 0.1 uM measured after 2 hrs by Western blot analysis

[5] = system: Mast/stem cell growth factor receptor Kit (Homo sapiens), P10721 [UNDEFINED MUTATION]; conditions: GISTT1, 0.1 uM; remark: listed apart in the source
Description: Inhibition of c-KIT 560 to 578 deletion/T670I mutant in human GISTT1 cells assessed as reduction in STAT3 phosphorylation at Y705 residue at 0.1 uM measured after 2 hrs by Western blot analysis

[6] = system: Mast/stem cell growth factor receptor Kit (Homo sapiens), P10721 [UNDEFINED MUTATION]; conditions: GISTT1, 0.1 uM; remark: listed apart in the source
Description: Inhibition of c-KIT 560 to 578 deletion/T670I mutant in human GISTT1 cells assessed as reduction in ERK phosphorylation at T202 residue at 0.1 uM measured after 2 hrs by Western blot analysis

[7] = target: Mast/stem cell growth factor receptor Kit (Homo sapiens, UniProt P10721, 560-578DEL); format: cell-based, GISTT1
Mast/stem cell growth factor receptor Kit (Homo sapiens, UniProt P10721, 560-578DEL), sequence (P10721 whole entry, looked up, stated change not applied): as the sequence (P10721 whole entry, looked up, stated change not applied) above

[8] = target: Platelet-derived growth factor receptor alpha (Mus musculus) (UniProt P26618); test: Inhibition of PDGFRA in mouse BAF3(transformed) cells assessed as growth inhibition after 72 hrs by CCK8 assay
[9] = target: T1, Mast/stem cell growth factor receptor Kit (Homo sapiens, UniProt P10721, 560-578DEL/T670I)
T1 sequence (P10721 whole entry, looked up, stated change not applied): as above

Mus musculus [10] = format: functional, organism-based; conditions: BALB/c, 80 mg/kg, TDE = time-dependent effect
Mus musculus [11] = format: functional, organism-based; conditions: BALB/c, 80 mg/kg
[12] = target: Platelet-derived growth factor receptor alpha (Homo sapiens, UniProt P16234); test: Binding affinity to wild-type human partial length PDGFRA (V575 to D1002 residues) expressed in mammalian expression system assessed as residual binding level at 1 uM by Kinomescan method relative to control
Platelet-derived growth factor receptor alpha, sequence (P16234 whole entry, the tested form may be a part): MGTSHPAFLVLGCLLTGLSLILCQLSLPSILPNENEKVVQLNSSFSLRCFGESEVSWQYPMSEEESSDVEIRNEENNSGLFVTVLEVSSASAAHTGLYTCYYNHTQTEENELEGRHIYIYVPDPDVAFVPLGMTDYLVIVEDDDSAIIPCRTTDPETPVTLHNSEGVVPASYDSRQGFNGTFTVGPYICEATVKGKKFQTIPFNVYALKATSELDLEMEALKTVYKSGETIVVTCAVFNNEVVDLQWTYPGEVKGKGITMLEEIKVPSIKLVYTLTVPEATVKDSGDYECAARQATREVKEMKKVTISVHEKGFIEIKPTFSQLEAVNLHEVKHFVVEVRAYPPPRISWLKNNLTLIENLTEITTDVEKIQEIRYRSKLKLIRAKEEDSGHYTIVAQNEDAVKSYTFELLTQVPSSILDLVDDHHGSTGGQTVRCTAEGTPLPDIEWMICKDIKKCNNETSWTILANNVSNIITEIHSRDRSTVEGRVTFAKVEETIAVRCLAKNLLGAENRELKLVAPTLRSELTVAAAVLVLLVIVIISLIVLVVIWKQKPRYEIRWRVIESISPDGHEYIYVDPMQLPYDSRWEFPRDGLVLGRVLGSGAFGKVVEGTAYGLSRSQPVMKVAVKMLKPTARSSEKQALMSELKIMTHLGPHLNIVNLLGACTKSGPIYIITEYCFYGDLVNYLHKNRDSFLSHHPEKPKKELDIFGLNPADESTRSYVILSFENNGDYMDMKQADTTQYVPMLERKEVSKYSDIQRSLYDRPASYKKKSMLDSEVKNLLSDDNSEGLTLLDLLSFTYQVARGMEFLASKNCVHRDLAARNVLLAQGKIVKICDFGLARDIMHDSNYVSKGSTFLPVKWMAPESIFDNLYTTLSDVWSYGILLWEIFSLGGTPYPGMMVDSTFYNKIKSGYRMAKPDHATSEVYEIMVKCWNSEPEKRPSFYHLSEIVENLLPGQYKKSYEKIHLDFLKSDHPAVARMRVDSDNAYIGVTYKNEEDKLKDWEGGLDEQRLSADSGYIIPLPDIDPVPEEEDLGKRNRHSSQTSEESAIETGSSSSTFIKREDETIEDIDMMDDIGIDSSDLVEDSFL

[13] = system: Mast/stem cell growth factor receptor Kit (Homo sapiens), P10721 [T670I]; conditions: Mus musculus
Description: Inhibition of c-KIT T670I mutant in mouse BAF3(transformed) cells assessed as growth inhibition after 72 hrs by CCK8 assay

[14] = Oral bioavailability in Sprague-Dawley rat at 10 mg/kg by LC-MS/MS analysis; format: ADME, organism-based; conditions: in vivo
[15] = Cmax in Sprague-Dawley rat at 10 mg/kg, po by LC-MS/MS analysis; format: ADME, organism-based; parameters: dose 10 mg/kg, route oral; conditions: in vivo
[16] = target: T1, Mast/stem cell growth factor receptor Kit; remark: listed apart in the source
Mus musculus [17] = format: functional, organism-based; conditions: BALB/c, 80 mg/kg, TDE = time-dependent effect; remark: listed apart in the source
[18] = Antitumor activity against mouse BAF3(transformed) cells harboring c-KIT D820G mutant implanted in BALB/c nu mouse assessed as tumor growth inhibition at 40 mg/kg/day, po administered via gavage for 9 days relative to control; format: functional; conditions: 216 h, read-out: TGI
[19] = Toxicity in BALB/c nu mouse implanted with mouse BAF3(transformed) cells harboring c-KIT T670I mutant assessed as change in body weight at 40 to 100 mg/kg/day, po administered via gavage for 11 days measured daily during compound dosing; format: organism-based; conditions: in vivo, 264 h
GISTT1 [20] = format: functional, cell-based; conditions: Homo sapiens
[21] = target: T1, Mast/stem cell growth factor receptor Kit; format: cell-based
[22] = Antitumor activity against mouse BAF3(transformed) cells harboring c-KIT Y823D mutant implanted in BALB/c nu mouse assessed as tumor growth inhibition at 80 mg/kg/day, po administered via gavage for 9 days relative to control; format: functional; conditions: 216 h, read-out: TGI
[23] = target: Epithelial discoidin domain-containing receptor 1 (Homo sapiens, UniProt Q08345); test: Binding affinity to wild-type human partial length DDR1 (R565 to V876 residues) expressed in bacterial expression system assessed as residual binding level at 1 uM by Kinomescan method relative to control
[24] = AUC (0 to t) in Sprague-Dawley rat at 10 mg/kg, po by LC-MS/MS analysis; format: ADME, organism-based; conditions: in vivo
[25] = target: Macrophage colony-stimulating factor 1 receptor (Mus musculus) (UniProt P09581); test: Inhibition of CSF1R in mouse BAF3(transformed) cells assessed as growth inhibition after 72 hrs by CCK8 assay
Mus musculus [26] = format: functional, organism-based; conditions: BALB/c, 80 mg/kg, TDE = time-dependent effect; remark: listed apart in the source
GISTT1 [27] = format: functional, cell-based; conditions: Homo sapiens; remark: listed apart in the source
[28] = target: T1, Mast/stem cell growth factor receptor Kit; format: cell-based; remark: listed apart in the source
[29] = target: Mast/stem cell growth factor receptor Kit (Homo sapiens, UniProt P10721, T670I/V559D); test: Inhibition of human N-terminal GST-tagged KIT V559D/T670I double mutant (544 to end residues) expressed in baculovirus infected Sf9 insect cells by Lanthascreen Eu-binding method
[30] = Half life in mouse at 1 mg/kg, iv by LC-MS/MS analysis; format: ADME, organism-based; conditions: in vivo
GISTT1 [31] = format: functional, cell-based; conditions: Homo sapiens; remark: listed apart in the source
GISTT1 [32] = format: functional
[33] = target: Vascular endothelial growth factor receptor 3 (Mus musculus) (UniProt P35917); test: Inhibition of FLT4 in mouse BAF3(transformed) cells assessed as growth inhibition after 72 hrs by CCK8 assay

CCN(CC)CCNC(=O)c1c(C)[nH]c(/C=C2\C(=O)Nc3ccc(F)cc32)c1C [SUNITINIB]
inhibition [1]: Active
inhibition [2]: Active
inhibition [3]: Active
inhibition [4]: Active
inhibition [5]: Active
inhibition [6]: Active

COc1cc2nccc(Oc3ccc(NC(=O)Cc4ccc(Cl)c(C(F)(F)F)c4)cc3)c2cc1OC
EC50 [7]: < 100 nM
GI50 [8]: 1 nM
EC50 [9]: < 100 nM
inhibition (Mus musculus [10]): Tde
inhibition (Mus musculus [11]): inactive
Activity [12]: < 1%
GI50 [13]: 4 nM
bioavailability [14]: 50%
Cmax [15]: 1640 ng/mL
EC50 [16]: < 100 nM
inhibition (Mus musculus [17]): Tde
inhibition in vivo at 40 mg/kg/day [18]: 88.9%
Activity [19]: Non-Toxic
TGI (GISTT1 [20]): Dose-dependent effect
EC50 [21]: < 100 nM
inhibition in vivo at 80 mg/kg/day [22]: 90.2%
Activity [23]: < 1%
AUC(0-t) [24]: 25100 ng·h/mL
GI50 [25]: 3 nM
inhibition (Mus musculus [26]): Tde
TGI (GISTT1 [27]): Dose-dependent effect
EC50 [28]: < 100 nM
IC50 [29]: 8 nM
half-life [30]: 5.4 h
Activity (GISTT1 [31]): Dose-dependent effect
TGI (GISTT1 [32]; Homo sapiens, 40 mg/kg): Dose-dependent effect
inhibition in vivo at 40 mg/kg/day (GISTT1 [32]; Mus musculus, GISTT1, po, 672 h, read-out: TGI): 76.4%
GI50 [33]: 522 nM
